These results are taken from patent publication US6069132A, “Phosphazole compounds” (priority 1997, dated 2000).

Series [1] deals with TNFα. Kind of series: Inhibition of TNFα production in LPS-stimulated THP-1 cells (ELISA). Format: cell-based, human. The following applies: for inhibition at 10 µg/mL / inhibition at 100 µg/mL / IC50: Homo sapiens; for inhibition at 10 µg/mL: 10 μg/mL; for inhibition at 10 µg/mL / inhibition at 100 µg/mL: THP-1, 6 h post-stimulation (FIG. 2), read-out: percent inhibition of TNFα production; for inhibition at 100 µg/mL: 100 μg/mL; for IC50: Table 2, LPS-stimulated THP-1, 6 h post-stimulation. As to the method: Cell line. THP-1 cells (human monocyte) were maintained in RPMI 1640 medium containing 25 mM Hepes buffer, 2 mM L-glutamine, 50 units of penicillin per mL, 50 μg of streptomycin sulfate per mL, and 10% heat-inactivated fetal bovine serum (FBS) in a humidified incubator containing 5% CO2. The cells were split 1:4 weekly as recommended by the American Type Culture Collection (ATCC).
TNFα assay. Varying concentrations of the test compound or control compound were added to THP-1 cells plated at a density of 1×10^6cells/mL in 600 μL of 10% RPMI in a 48 well plate. After one hour the cells were stimulated with 0.5 μg of lipopolysaccharide (LPS; Sigma, lot number 43H40491) per mL. Six hours post-stimulation supernatants were collected and assayed for TNFα or IL-1β production using a commercially available cytokine detection ELISA (Enzyme Linked Immunosorbent Assay) kit according to the suppliers instructions. A suitable assay kit may be obtained from Biosource, or R and D systems. A novel xanthine analog, HWA-3138, having the structure (as shown below) was used as the control compound (30) in this study to monitor the response of the THP-l cells. Xanthine analogs are known inhibitors of TNFα but not IL-1β. In the following experiments compound HWA-3138 was used as a positive control. [drawing 58]
Time of Addition. Varying concentrations of test or control compounds were added to THP-1 cells (1×10^6 cells/mL) at different time points post-stimulation using 0.5 μg of LPS (Sigma, lot number 43H40491) per mL in 300 μL of 10% RPMI in a 48 well plate. Six hours post-stimulationsupernatants were collected and assayed for TNFα or IL-1β production using a Biosource cytokine detection ELISA (Enzyme Linked Immunosorbent Assay) kit according to the supplier's instructions.
The membrane bound TNFα was separated from the free TNFα in the culture medium at 6 hours post-LPS stimulation as follows: The corresponding cells were centrifuged at 3500 rpm (~1,000×g) for 6 min. The supernatants were removed and the cell pellets were then resuspended in 200 μL of 0.25 mM Tris-HCl (pH 7.4). The cell associated TNFα was prepared by freezing the cell suspension in dry ice/ethanol and thawing at 37° C. three times with Vortexing in-between freeze-thaw cycles. Each cycle was 4-5 min apart.
To determine the long-term effects of phosphazole compound T70241 on TNFα production after a single treatment, THP-1 cells were pre-incubated with T70241, washed and resuspended in drug free medium. The xanthine analog HWA-3138 was used as a control.

Series [2] can be described thus: Cytotoxicity on growing THP-1 cells (MTS assay). It counts as cell-based, human. The following applies: human, thp-1 cells; Table 2; drug dose required to inhibit logphase growing cells by 50%; read-out: TC50 Growing THP-1. As to the method: Cytotoxicity Analysis. The cytotoxicity of the compounds were assayed using the CellTiter 96™ Aqueous Non-Radioactive Cell Proliferation (MTS) Assay kit obtained from Promega (Madison, Wis.) following the instructions provided by the supplier. The viable cell number was determined by trypan blue staining and cells (THP-1) were resuspended in PRMI supplemented with 10% FBS (GIBCO). Eighty microliters of cell suspension (1.7×10^4cells/well) was dispensed onto a 96-well microtiter plates. At this time 20 μL of drug (or control) was added to appropriate wells. Each concentration was assayed in quadruplicate. The plates were incubated at 37° C. in a humidified 5% CO2 atmosphere for 4 days and MTS assay […] for each concentration and the data obtained was used to calculate TC50 (the concentration of the compound necessary to inhibit the cell growth by 50%) for each compound.
A general note: Formazan colour is commonly taken as a measure of viable cells.

Another series relates to HSV-1. Briefly: HSV-1 CPE assay in Vero cells. It counts as cell-based. Conditions: Human alphaherpesvirus 1, Vero; Table 4.
The subject of series [3] is TNFα. Kind of series: Inhibition of TNFα in LPS-stimulated PBMCs. It counts as cell-based, human. The following applies: for inhibition at 10 µg/mL / inhibition at 50 µg/mL / inhibition at 100 µg/mL / inhibition at 250 µg/mL: Homo sapiens, PBMC; for inhibition at 10 µg/mL: 10 μg/ml; for inhibition at 50 µg/mL: 50 μg/ml; for inhibition at 100 µg/mL: 100 μg/ml; for inhibition at 250 µg/mL: 250 μg/ml. How it is done: (§1) Primary cell assays. Primary human peripheral blood mononuclear cells (PBMCS) were isolated as described by Ojwang et al. (114). Isolated monocytes were added to 24-well cluster plates (Costar, Cambridge, Mass.) at a concentration of 1×10^5 viable cells per well. Culture medium or test material dilutions in culture medium were added to the wells, the plates were then incubated at 37° C. for one hour. […] The plates were incubated an additional 4, 24 or 48 hours. The supernatant fluids were then harvested and centrifuged to pellet cells or cellular debris, and the supernatant fluids were stored at -70° C. until they were assayed for the presence of TNFα using a commercially available ELISA kit, such as that described in Example 46.

In another series the test system is IL-1β. Kind of series: Inhibition of IL-1β in LPS-stimulated PBMCs. It counts as cell-based, human. The following applies: for inhibition at 10 µg/mL / inhibition at 50 µg/mL / inhibition at 100 µg/mL / inhibition at 250 µg/mL: Homo sapiens, PBMC; for inhibition at 10 µg/mL: 10 μg/ml; for inhibition at 50 µg/mL: 50 μg/ml; for inhibition at 100 µg/mL: 100 μg/ml; for inhibition at 250 µg/mL: 250 μg/ml. As to the method: The phosphazole T70241 was further evaluated for its activity against IL-1β in PBMCs stumulated with LPS and aliquotes collected after 4, 24 and 48 hour post-stimulation.
as §1

The mark [4] stands for this setting: lowest concentration tested, 6 h post-LPS (FIG. 4).

In brackets after ≈: the same amount, converted by molar mass. Entries after “also recorded” stand apart in the source; their conditions may differ.

With `CCCCCn1cpc2ncnc(N)c21` (stereo not shown) [T70254, 7-Amino-1-(n-pentyl)-1,3-azaphospholo[4,5-d]pyrimidine], in the series with TNFα [1] (6 hours, LPS (FIG. 2)), the “inhibition of TNFα production by T70254” value is “significantly inhibits TNFα production in THP-1 cells”. Also, in the series with TNFα [1], the inhibition at 10 µg/mL was ~30%, the inhibition at 100 µg/mL is ~55% and the IC50 is 19.4 µg/mL (≈ 87.3 µM). Further, the CC50 at 96 h in series [2] amounted to 14.7 µg/mL (≈ 66.2 µM). In addition, in the series with HSV-1, the IC50 was > 50 µg/mL.

`Nc1ncnc2pc[nH]c12` (stereo not shown) [T70241, 7-amino-1H-1,3-azaphospholo[4,5-d]pyrimidine]: in the series with TNFα [1] (6 hours post-LPS (FIG. 4)), the “levels of cell associated and free TNFα” value was “able to reduce the levels of both cell associated and free TNFα”. Besides, the inhibition at 10 µg/mL was ~25% in the series on TNFα [1]; 0% with TNFα [3] (4 h); -3% in the series with TNFα [3] (24 h); -9% with TNFα [3] (48 h); 18% with IL-1β (4 h); 6% with IL-1β (24 h). Moreover, the inhibition at 10 µg/mL in the series on IL-1β (48 h) came out at 4%. The inhibition at 100 µg/mL was ~90% in the series on TNFα [1]; 76% with TNFα [3] (4 h); 81% with TNFα [3] (24 h); 79% with TNFα [3] (48 h); 98% in the series with IL-1β (4 h); 78% in the series with IL-1β (24 h). Besides, the inhibition at 100 µg/mL with IL-1β (48 h) was determined as 70%. Moreover, the results for the half-inhibitory concentration (IC50) in the series on TNFα [1] and in the series with HSV-1 were 23.9 µg/mL (≈ 157 µM) and > 50 µg/mL, respectively. Further, the “TNFα level on late addition” value with TNFα [1] (compound added 5 hours post-LPS, read at 6 h (FIG. 3)) is on record as “significantly reduce the level of TNFα in the culture medium; also recorded: sharply inhibit the amount of cytokine in the culture”. The “inhibition of TNFα production compared to control HWA-3138” value in the series with TNFα [1] (concentrations as little as 10 μg/mL (FIG. 2)) is listed as “inhibits TNFα production in these cells better than the control xanthine compound”. In the series with TNFα [1] (setting [4]), the “reduction of extracellular TNFα” value was “about 50%”. For the same compound, in the series with TNFα [1] (setting [4]), the “reduction of membrane-bound (intracellular) TNFα” value was ~30%. Moreover, the “long-term inhibition of TNFα production after a single treatment” value in the series on TNFα [1] (pre-incubated, washed, drug free medium (FIG. 5)) is listed as “in a dose dependent fashion for 72 hours after the drug removal”. Further, in series [2], the CC50 at 96 h was > 1000 µg/mL. For the same compound, the “TNFα production in PBMCs” value in the series on TNFα [3] (48 hours post-LPS induction) was “significantly reduce the levels of TNFα production in the PBMCs”. The inhibition at 50 µg/mL was determined as 50% with TNFα [3] (4 h); 58% with TNFα [3] (24 h); 51% with TNFα [3] (48 h); 86% with IL-1β (4 h); 24% in the series with IL-1β (24 h); 36% with IL-1β (48 h). Also, the inhibition at 250 µg/mL in the series with TNFα [3] (4 h) is 76%; with TNFα [3] (24 h), 84%; in the series with TNFα [3] (48 h) it was 82%; with IL-1β (4 h) it was 99.7%; with IL-1β (24 h) it was 86%; in the series with IL-1β (48 h), 75%. The “inhibition of IL-1β in PBMCs” value in the series with IL-1β (up to 48 hour) was “inhibited IL-1β up to 48 hour in a dose dependent fashion”.

Usually inhibition stands for the change of the read-out against control, counted positive when it falls. As usually defined, the IC50 is the concentration that gives 50% inhibition. High values mean a need for much substance, low ones inhibition by little substance.
